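Values below derive from 48-hour exposures of cells grown in 96-well plates, with endpoints linearly interpolated between the two concentrations bracketing the appropriate inhibition level. At the GI50, growth is halved. At the TGI there is no net growth.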
Experiments:
Assay in all cases: inhibition of tumour cell growth, NCI panel, 48 h
[1] = tested on: 786-0 renal
[2] = tested on: A498 renal
[3] = tested on: A549 NSCLC
[4] = tested on: ACHN renal
[5] = tested on: BT-549 breast
[6] = tested on: CAKI-1 renal
[7] = tested on: CCRF-CEM leukemia
[8] = tested on: COLO 205 colon
[9] = tested on: DU-145 prostate
[10] = tested on: EKVX NSCLC
[11] = tested on: HCC-2998 colon
[12] = tested on: HCT-15 colon
[13] = tested on: HL-60(TB) leukemia
[14] = tested on: HOP-62 NSCLC
[15] = tested on: HOP-92 NSCLC
[16] = tested on: HS 578T breast
[17] = tested on: HT29 colon
[18] = tested on: IGROV1 ovarian
[19] = tested on: K-562 leukemia
[20] = tested on: KM12 colon
[21] = tested on: LOX IMVI melanoma
[22] = tested on: M14 melanoma
[23] = tested on: MALME-3M melanoma
[24] = tested on: MCF7 breast
[25] = tested on: MDA-MB-231 breast
[26] = tested on: MDA-MB-435
[27] = tested on: MDA-MB-468 breast
[28] = tested on: MOLT-4 leukemia
[29] = tested on: NCI-H226 lung
[30] = tested on: NCI-H23 lung
[31] = tested on: NCI-H460 lung
[32] = tested on: NCI-H522 lung
[33] = tested on: NCI/ADR-RES ovarian
[34] = tested on: OVCAR-3 ovarian
[35] = tested on: OVCAR-4 ovarian
[36] = tested on: OVCAR-5 ovarian
[37] = tested on: OVCAR-8 ovarian
[38] = tested on: PC-3 prostate
[39] = tested on: RPMI-8226 leukemia
[40] = tested on: RXF 393 renal
[41] = tested on: SF-268 CNS
[42] = tested on: SF-295 CNS
[43] = tested on: SF-539 CNS
[44] = tested on: SK-MEL-2 melanoma
[45] = tested on: SK-MEL-28 melanoma
[46] = tested on: SK-MEL-5 melanoma
[47] = tested on: SK-OV-3 ovarian
[48] = tested on: SN12C renal
[49] = tested on: SNB-19 CNS
[50] = tested on: SNB-75 CNS
[51] = tested on: SR leukemia
[52] = tested on: SW-620 colon
[53] = tested on: T-47D breast
[54] = tested on: TK-10 renal
[55] = tested on: U251 CNS
[56] = tested on: UACC-257 melanoma
[57] = tested on: UACC-62 melanoma
[58] = tested on: UO-31 renal

Structure (SMILES): OCc1[nH]nc2cc(Nc3ncc4ccc(Br)c(OC5CCC(O)CC5)c4n3)ccc12 (centres undefined)
- GI50 [1]: 37.1 nM
- TGI [1]: 2700 nM
- GI50 [2]: 49.5 nM
- TGI [2]: 231 nM
- GI50 [3]: 157 nM
- TGI [3]: > 100000 nM
- GI50 [4]: 23.1 nM
- GI50 [5]: 27.4 nM
- TGI [5]: 133 nM
- GI50 [6]: 21.2 nM
- TGI [6]: 2400 nM
- GI50 [7]: 31.4 nM
- TGI [7]: > 100000 nM
- GI50 [8]: 31.7 nM
- TGI [8]: 145 nM
- GI50 [9]: 35.9 nM
- TGI [9]: > 100000 nM
- GI50 [10]: 67.3 nM
- TGI [10]: 414 nM
- GI50 [11]: 51.2 nM
- TGI [11]: 519 nM
- GI50 [12]: 36 nM
- TGI [12]: 1540 nM
- GI50 [13]: 14.7 nM
- TGI [13]: 105 nM
- GI50 [14]: 34 nM
- TGI [14]: 22800 nM
- GI50 [15]: 92.2 nM
- TGI [15]: > 100000 nM
- GI50 [16]: 44.4 nM
- TGI [16]: 1850 nM
- GI50 [17]: 103 nM
- TGI [17]: 487 nM
- GI50 [18]: 32.6 nM
- TGI [18]: 1190 nM
- GI50 [19]: 78.8 nM
- TGI [19]: > 100000 nM
- GI50 [20]: 34.7 nM
- TGI [20]: 358 nM
- GI50 [21]: 16.4 nM
- TGI [21]: 59.2 nM
- GI50 [22]: 45 nM
- TGI [22]: 1740 nM
- GI50 [23]: 88.2 nM
- TGI [23]: 517 nM
- GI50 [24]: 19.9 nM
- TGI [24]: 1100 nM
- GI50 [25]: 30.1 nM
- TGI [25]: 505 nM
- GI50 [26]: 39.9 nM
- TGI [26]: 2470 nM
- GI50 [27]: 30.1 nM
- TGI [27]: 100 nM
- GI50 [28]: 37.2 nM
- TGI [28]: > 100000 nM
- GI50 [29]: 16.4 nM
- TGI [29]: 77 nM
- GI50 [30]: 40.2 nM
- TGI [30]: 257 nM
- GI50 [31]: 47.4 nM
- TGI [31]: 4380 nM
- GI50 [32]: 202 nM
- TGI [32]: 744 nM
- GI50 [33]: 226 nM
- TGI [33]: 12200 nM
- GI50 [34]: 25.6 nM
- TGI [34]: 171 nM
- GI50 [35]: 44.2 nM
- TGI [35]: 1760 nM
- GI50 [36]: 50 nM
- TGI [36]: 316 nM
- GI50 [37]: 40.5 nM
- TGI [37]: > 71900 nM
- GI50 [38]: 50.2 nM
- TGI [38]: > 100000 nM
- GI50 [39]: 276 nM
- TGI [39]: > 100000 nM
- GI50 [40]: 19.3 nM
- TGI [40]: 46.7 nM
- GI50 [41]: 33.5 nM
- TGI [41]: 1320 nM
- GI50 [42]: 40.6 nM
- TGI [42]: 508 nM
- GI50 [43]: 22.5 nM
- TGI [43]: 69.6 nM
- GI50 [44]: 47.6 nM
- TGI [44]: 213 nM
- GI50 [45]: 49.9 nM
- TGI [45]: 963 nM
- GI50 [46]: 27 nM
- TGI [46]: 428 nM
- GI50 [47]: 376 nM
- TGI [47]: > 100000 nM
- GI50 [48]: 35 nM
- TGI [48]: 20000 nM
- GI50 [49]: 25.8 nM
- TGI [49]: > 44800 nM
- GI50 [50]: 35.9 nM
- TGI [50]: 296 nM
- TGI [51]: > 100000 nM
- GI50 [52]: 25.7 nM
- TGI [52]: 1960 nM
- GI50 [53]: 41.1 nM
- TGI [53]: 904 nM
- GI50 [54]: 78.7 nM
- TGI [54]: 729 nM
- GI50 [55]: 39.1 nM
- TGI [55]: > 100000 nM
- GI50 [56]: 234 nM
- TGI [56]: 9780 nM
- GI50 [57]: 35.9 nM
- TGI [57]: 379 nM
- GI50 [58]: 28.8 nM
- TGI [58]: 278 nM

— PubChem BioAssay (NCI)
